Values quoted from earlier work, collected in US11534589B2, “Iontophoretic microneedle device” (LTS LOHMANN THERAPIE-SYSTEME AG, priority 2017, dated 2022).
Where two headings read alike, the source gives them in different places.

Assays:
[1] = maltose microneedles combined with iontophoresis, hairless rats

Row | Increase in delivery [1] [fold] | Bioavailability (nasal spray) [%] | Bioavailability (oral tablet) | SMILES
1 | 25 |  |  | CN(Cc1cnc2nc(N)nc(N)c2n1)c1ccc(C(=O)N[C@@H](CCC(=O)O)C(=O)O)cc1 [methotrexate]
2 |  | ≤ 14 | not more than 15% | CNS(=O)(=O)Cc1ccc2[nH]cc(CCN(C)C)c2c1.O=C(O)CCC(=O)O [sumatriptan, 3-[2-(dimethylamino)ethyl]-N-methyl-indole-5-methane-sulfonamide succinate (1:1)]
